Entries after “also recorded” stand apart in the source; their conditions may differ.
Tests used:
[1] = system: HCT116 cells; experiment: Attachment assay of CRC cells to lung endothelial cell layer; format: cell-based, human
Experimental: Attachment assay was performed according to the established protocol {Reymond, 2012}. Briefly, human lung endothelial cells were plated onto collagen-coated dish. After they reached confluent to form a layer, EGFP-labeled CRC cells were plated onto it. Fifteen minutes later, floating cells were washed with PBS, and the numbers of CRC cells adhering to the endothelial layer were counted under a fluorescent microscope.

[2] = system: Notch receptor; experiment: Notch receptor cleavage (NICD) after EDTA treatment, IP-western; format: cell-based, human; conditions: 10 mM EDTA; anti-Notch1 (C-term) antibody
Experimental: (§1) Cultured CRC cells were washed with PBS, treated with 10 mM EDTA in PBS for 2 minutes, and incubated again in culture media. […] After incubation for defined period, cells were lysed and cleaved Notch and GTP-Rho was detected. DAPT (Calbiochem) were applied to cultured CRC cells to inhibit its γ-secretase activity.
ABL1B cDNA was prepared from cDNA pool of human colon and tagged with hemaglutinin (HA) sequence to construct ABL1B-HA. The wild-type cDNA was mutagenized by QuikChange Lightning Multi Site-Directed Mutagenesis Kit (Agilent) to derive kinase-dead ABL1B(K290R)-HA mutant. These ABL1B constructs were placed into pEFBosneo expression vector (provided by Shigekazu Nagata, Kyoto University, Japan). DAB1-Flag cDNA was inserted into pcDNA3 (Invitrogen). TRIO cDNA (provided by Anne Debant, CRBM-CNRS, France) was tagged with T7 sequence and inserted into pCX expression vector carrying CAG promoter and rabbit β-globin poly(A) (provided by Masaru Okabe, Osaka University, Japan). NICD-Myc expression vector was provided by Tasuku Honjo, Kyoto University, Japan. These expression vectors were transfected into CRC or HEK293T cells using Lipofectamine LTX (Invitrogen). Sixteen hours post-transfection, the cells were lysed in lysis buffer (10 mM Tris-Cl, 1 mM EDTA, 150 mM NaCl and 1% NP-40). The supernatants were mixed with agarose conjugated with anti-HA, Flag, T7, or Myc antibodies (MBL). […]

[3] = system: Rho; experiment: Active Rho (GTP-Rho) pull-down assay in RKO cells; format: cell-based, human
Experimental: GTP-Rho was pulled-down and detected by using Rho activation assay kit (Thermo) according to the manufacturers' protocol. Briefly, tissues or CRC cells were lysed with lysis buffer, and GTP-Rho in the lysates was pulled-down using Rhotekin and detected by anti-Rho antibody in western analysis.
(§2) Recombinant DLL4 (rDLL4) (R&D) was resuspended with PBS. For scratch and GTP-Rho pull-down assays, 1 μg was put into 6-well culture plate to coat its surface with rDLL4 at 0.1 μg/cm^2. For q-RT-PCR assays, the plate surface was coated with rDLL4 at 0.1-1 μg/cm^2. After overnight incubation at 4-degree, the plates were washed once with PBS and plated with CRC cells. For expression analysis of HES1 and DAB1, cells were lysed and mRNA was extracted after four hours.
as §1

[4] = system: DAB1; experiment: DAB1 mRNA quantitative RT-PCR in LS174T cells on rDLL4; format: cell-based, human
Experimental: as §2
TaqMan primers/probes for quantification of HES1, DAB1, ABL1, and ABL2 mRNAs were purchased from ABI. ChIP analyses were performed by using CRC cells and anti-Rbpj (Institute of Immunology) and anti-NICD (Cell Signaling Technology) antibodies according to published protocol (Kakizaki et al., 2010). Precipitated fragments of genomic DNA were tested for enrichment of promoter regions of HES1 gene by SYBR green (ABI) using hHES1ChIP.F ([…]) (SEQ ID NO: 4) and hHES1ChIP.R ([…]) (SEQ ID NO: 5) primers that sandwich high affinity binding sequence of Rbpj. Similarly, enrichment of DAB1 promoter fragments was quantified by hDAB1ChIP.F2 ([…]) (SEQ ID NO: 6) and hDAB1ChIP.R2 ([…]) (SEQ ID NO: 7) primers.

[5] = system: RKO human CRC cells; experiment: Matrigel invasion assay, RKO cells; format: cell-based; conditions: for Matrigel invasion of RKO cells: inhibitor treatment 16 h prior to assay
Experimental: (§3) Matrigel invasion assays were performed as previously described using Matrigel (BD) {Sonoshita, 2011}. For TEM assay, human umbilical vein endothelial cell (HUVEC) was seeded in the upper chamber of Transwell (Corning). One day (24 h) later, EGFP-labeled CRC cells were plated onto the layer of HUVEC. After 24 h, CRC cells migrated to the lower side of the membrane were counted under a fluorescent microscope.

[6] = system: HCT116 cells; experiment: Matrigel invasion assay, HCT116 cells; format: cell-based, human
Experimental: as §3

[7] = system: HCT116; experiment: Transendothelial migration (TEM) assay, HCT116 cells; format: cell-based, human; conditions: HCT116, data not shown
Experimental: as §3

[8] = system: RKO human CRC cells; experiment: Transendothelial migration (TEM) assay, RKO cells; format: cell-based; conditions: inhibitor treatment 16 h prior, HUVEC layer, 24 h
Experimental: as §3

[9] = system: Apc/Aes compound mutant mice; experiment: Tumor invasion histopathology in Apc/Aes compound mutant mice; format: in vivo, mouse; conditions: 50 mg/kg/day i.p. for 9 weeks
Description: Apc^+/Δ716 mutant mice were generated and maintained as described previously {Oshima, 1995}. Apc^+/Δ716Aes^Floxed/FloxedvCre^ERT2 (abbreviated as Apc/Aes) mice were constructed as reported to knockout Aes in Apc^+/Δ716 mice by virtue of Cre^ERT2 whose expression is driven by intestinal epithelium-specific villin promoter {Sonoshita, 2011}. Rbpj floxed allele was constructed as reported {Han, 2002}, obtained from RIKEN BRC, and crossed with Apc/Aes mice to derive Apc^+/Δ716Aes^Floxed/FloxedRbpj^Floxed/FloxedvCre^ERT2 (Apc/Aes/Rbpj) mice. Dab1 floxed allele was constructed (Imai et al., in preparation) and crossed with Apc/Aes mice to obtain Apc^+/Δ716Aes^Floxed/FloxedDab1^Floxed/FloxedvCre^ERT2 (Apc/Aes/Dab1) mice. Tumor histopathology in compound mutant mice was analyzed at 12 weeks of age. […] Total of ˜100 tumors with diameters larger than 2 mm from 5 mice were scored for each mutant genotype. CRC cell lines were obtained from ATCC. Upon transplantation into the rectal smooth muscle, CRC cells formed a visible primary tumor within a week. Six weeks later, mice were euthanized and examined for metastatic foci under a fluorescent microscope (Leica). All animal experiments were conducted according to the protocol approved by the Animal Care and Use Committee of Kyoto University.

[10] = system: TRIO; experiment: Cell-free RhoGEF GTP exchange assay; format: biochemical, human; conditions: TRIO(WT) from imatinib-treated HEK293T transfectants; recombinant RhoA, mant-GTP, 10 min
Description: First, we transfected HEK293T cells with an expression plasmid for T7-TRIO (either WT, Y2681F or G2699V), and pulled-down each TRIO protein from cell lysates using agarose conjugated with anti-T7 antibody (MBL). Then we mixed the TRIO fraction with recombinant RhoA in the presence of mant-GTP (Cytoskeleton) that emits stronger fluorescence when bound to Rho small GTPases (Rossman et al., 2002).

## C[C@H](NC(=O)Cc1cc(F)cc(F)c1)C(=O)N[C@H](C(=O)OC(C)(C)C)c1ccccc1 [DAPT]
[1]; HCT116 treated 2 hours, washing at 15 min post plating
  Number of CRC cells remaining attached to the EC layer: reduced
[1]; RBPJ-knockdown HCT116, DAPT 2 hours
  EC adhesion of CRC cells with RBPJ knocked-down: prevented
[2]
  Cleaved Notch receptor (NICD) upon EDTA treatment: blocked; also recorded: inhibited
[3]; RKO cells, 10 μM DAPT for 12 h, then 10 mM EDTA
  Rho activation (GTP-Rho) after Notch receptor activation with EDTA: inhibited; also recorded: Suppression
[4]; LS174T, 10 μM DAPT for 24 h, rDLL4-coated dishes, 4 h
  DAB1 mRNA expression induced by rDLL4: inhibited

## CCN(CC)CCCC(C)Nc1nc(C)cc(Nc2ccc3nc(C)cc(N)c3c2)n1 (centres unmarked) [NSC23766]
[5]
  Matrigel invasion of RKO cells: did not affect
[5]; listed as NSC27366
  Matrigel invasion of RKO cells: Little effect

## CC(C)(C)n1nc(-c2ccc(Cl)cc2)c2c(N)ncnc21 [PP2]
[5]; RKO cell invasion in culture, FIG. 10A
  effect on the RKO cell invasion in culture: ~20%
[5]
  Matrigel invasion of RKO cells: only a minor inhibition
[6]; PP2 at 10 μm, FIG. 10A
  Matrigel invasion: only a minor effect

## C[C@@H](N)[C@H]1CC[C@H](C(=O)Nc2ccncc2)CC1 [Y-27632]
[7]
  Transendothelial migration (TEM) of HCT116 cells: suppressed
[5]
  Matrigel invasion of RKO cells: suppresses
[6]; HCT116, data not shown
  Matrigel invasion of HCT116 cells: suppressed
[8]
  Transendothelial migration (TEM) of RKO cells: suppresses

## Cc1nc(Nc2ncc(C(=O)Nc3c(C)cccc3Cl)s2)cc(N2CCN(CCO)CC2)n1.O [dasatinib, N-(2-chloro-6-methylphenyl)-2-[[6-[4-(2-hydroxyethyl)-1-piperazinyl]-2-methyl-4-pyrimidinyl]amino]-5-thiazole carboxamide monohydrate]
[5]
  Matrigel invasion of RKO cells: suppressed the invasion significantly
[6]; dasatinib at 0.01 μm, FIG. 10A
  HCT116 cell invasion in Matrigel: tight suppression

## Cc1ccc(NC(=O)c2ccc(CN3CCN(C)CC3)cc2)cc1Nc1nccc(-c2cccnc2)n1 [imatinib, 4-(4-methylpiperazin-1-ylmethyl)-N-[4-methyl-3-(4-(pyridin-3-yl)-pyrimidin-2-ylamino-)phenyl]-benzamide]
[5]
  Matrigel invasion of RKO cells: blocks
[3]; RKO cells, pull-down 5 minutes after EDTA, dose-dependent
  Rho activation (GTP-Rho) induced by EDTA: blocked; also recorded: inhibits
[9]
  tumor size or number: without changing
[9]; 50 mg/kg/day
  CRC invasion (depth of tumor invasion): significant suppression; also recorded: suppresses
[10]
  Capacity of Rho activation (RhoGEF activity) of TRIO(WT) purified from imatinib-treated cells: significantly decreased

## rDLL4: recombinant extracellular domain of Notch ligand DLL4 (R&D), immobilized on dish surface
[3]; cultured CRC cells on dishes coated with rDLL4
  Rho activation (GTP-Rho): activated
[4]; LS174T on immobilized rDLL4 0.1-1 μg/cm^2, 4 h, dose-dependent
  DAB1 mRNA expression: increased; also recorded: induces
